From patent US5622725A, “Wound disinfection and repair” (Alcide Corporation, priority 1996, dated 1997)

Tests used:
[1] = test system: Staphylococcus epidermidis biofilms; test: Sterilization of S. epidermidis biofilms, minimal exposure time at 22° C. (supravital dye, confirmed by culture); assay type: cell-based; settings: 22° C.
Source text: This example compares and contrasts the cidal effectiveness of compositions of the invention with other disinfectants and antibiotics against Staphylococcus epidermidis biofilms, which are frequently observed on the surface of C.A.P.D. peritoneal catheters even in the absence of peritonitis or exit site infections.
A strain of S. epidermidis with characteristic abundant slime production, and derived from a human source, is used to prepare the biofilms. The isolate is fully sensitive in the fluid phase to all commonly used antibiotics as assayed using routine test methods. Aliquots of the bacteria are frozen at -70° C. in 10% glycerol broth or propagated on 5% defibrinated horse blood agar. Standardized biofilms are formed on soda glass microscope slides or slides coated with Silastic® (the basic material of indwelling catheters; see Cecil's, cited above, on page 542), placed in Petri dishes containing 20 ml of tryptone soya broth (Oxoid Ltd., England), seeded with 10^4 cfu S. epidermidis and incubated for 18 hours at 37° C. Reproducible uniform and confluent S. epidermidis biofilms of minimal density are formed.
(§1) Antibiotic activity against S. epidermidis biofilms are determined using a supravital dye which acts as an electron acceptor in coupled oxidative systems in biofilm bacteria. The method allows the bacteria to be examined undisturbed within the biofilm matrix in situ. Briefly stated, the biofilms are exposed to antibiotic solutions and incubated at […] for varying periods of time. Positive (viable, 1% peptone water) and negative (sterilized, 4% formol-peptone) controls are included in all experiments. After a designated exposure at 22° C. for varying periods of time between 15 seconds to 6 hours, the biofilms are rinsed twice in sterile water and allowed to drain. They are then placed in a flat agar medium incorporating substantive dyes and incubated at 37° C. for 4 hours, then 24 hours. Viability is assessed visually by a change in dye color and confirmed after 24 hours by mechanically scraping and subsequently culturing the biofilms. Sterilization is indicated by the absence of color changes and confirmed by culture of both intact and mechanically fragmented biofilms. Inhibition of growth is indicated by a lack of color change after a 4-hour incubation and confirmed by a positive color change by 24 hours.

[2] = test system: Bacteroides species; test: Cidal activity of 50 ppm ClO2; assay type: cell-based; settings: within one minute
Source text: (§2) This invention provides a quick-acting, broad-spectrum antimicrobial, that is not absorbed systemically because it is rapidly eliminated or degraded. The inventive compositions have the requisite, extended range of antimicrobial action, rapidity of kill and degradability for this application. […] ClO2 reacts with oxidizable bonds of these organisms and other organic matter and, as a result, is reduced to lower oxidation states: initially chlorite and ultimately chloride. The latter is present at high levels in the body (ca. 0.5% of cellular fluids), so that the small amount formed by ClO2 degradation (in the parts per million range) would disappear into that pool. Compatability of these disinfecting peritoneal flush solutions is also appropriate, since the ClO2 is generated or dissolved in solutions which have osmotic pressures that are suitably isotonic with cellular fluids.

[3] = test system: Pseudomonas aeruginosa; test: Cidal activity of 50 ppm ClO2; assay type: cell-based; settings: within one minute
Source text: as §2

[4] = test system: Staphylococcus species; test: Cidal activity of 50 ppm ClO2; assay type: cell-based; settings: within one minute
Source text: as §2

[5] = test system: Streptococcus species; test: Cidal activity of 50 ppm ClO2; assay type: cell-based; settings: within one minute
Source text: as §2

[6] = test system: Escherichia coli and other coliforms; test: Cidal activity of 50 ppm ClO2; assay type: cell-based; settings: within one minute
Source text: as §2

[7] = test system: Klebsiella pneumoniae; test: Cidal activity of 50 ppm ClO2; assay type: cell-based; settings: within one minute
Source text: as §2

[8] = test system: S. epidermidis biofilms; test: Sterilization of S. epidermidis biofilms by diluted 50 ppm ClO2 or formol saline; assay type: cell-based, Staphylococcus epidermidis; settings: for minimal time of exposure to effect sterilization: 22° C.
Method: as §1
This conclusion is underscored in studies that assess the efficacy of methods employed using compositions of the invention in combination with an infusate used in C A P D and C C P D practice, Inpersol® Abbott Laboratories, Montreal, Canada, which contains 4.25% dextrose and has a pH of 5.2. A 50 ppm ClO2 solution is diluted from 1:2 to 1:10 with normal saline (denoted below as NS), Inpersol® peritoneal dialyzate (denoted as PD), and peptone-saline (a standardized protein digest obtained from Oxoid, denoted as PS). Four percent formol saline, a known potent environmental disinfectant of considerable toxicity, is used as a reference. The results are expressed as the minimal time of exposure at 22° C. to effect sterilization of S. epidermidis biofilms: […]

[9] = test system: free radicals generated by xanthine oxidase (XO) on xanthine; test: Scavenging of free radicals generated by xanthine oxidase on xanthine (ferricytochrome C reduction); assay type: biochemical
Source text: Since recent studies indicate that the superoxide radical is the active form of oxygen in the prolyl and lysyl hydrolyase reactions during collagen synthesis, this example assesses the effects that compositions of the invention have on free radicals.
Free radicals are generated in vitro by the action of xanthine oxidase (XO) on xanthine. The generation of free radicals is monitored by the reduction of ferricytochrome C by the system. The action of chlorine dioxide is compared with the scavenging action of the well known free radical scavengers superoxide dismutase (SOD) and catalase.
The experiments are divided into three groups. In the first group, 50 μmoles of xanthine, 0.0217 units/mg XO, 0.1 mM EDTA are mixed in a total volume of 1.0 ml Hank's Balanced Salt Solution (HBSS). This generated 64 ±8 nmoles oxygen. In the second group, 0.3125 units/mg SOD and 1,300 units catalase are added to the reagents employed in group 1; this yields 19.4 nmoles oxygen. […] In the third group, chlorine dioxide is substituted for the SOD and catalase in the same system; a chlorine dioxide concentration of about 7.5 ppm inhibits free radical formation by 74% and at a concentration of 15 ppm, by 100%.

[10] = test system: cows' udders; test: Infusion into cows' udders, immune response; assay type: in vivo, cow; settings: 350 ppm in buffered saline
Source text: It is an advantage of the invention that solutions containing fairly significant levels of ClO2 are particularly well tolerated by tissues. […] ClO2 is capable of being reduced to lower oxidation states, such as chlorite and chloride, upon contact with organic materials, but is less reactive than, for example, hypochlorite, and a volume of ClO2 -containing saline is expected to retain significant antimicrobial activity when used to flush out organic debris from an incised area. Appropriate use levels of ClO2 will vary, depending on the amount of organic detritus in the site, but generally concentrations of about 5 to 250 ppm in approximately isotonic solution can be used with good effect.

[O][Cl+][O-] [ClO2, chlorine dioxide]
Exposure Time (22° C.) for Film Sterilization [1]: 5 s
kill [2]: 6 logs/ml
kill [3]: 6 logs/ml
kill [4]: 6 logs/ml
kill [5]: 6 logs/ml
kill [6]: 6 logs/ml
kill [7]: 6 logs/ml
minimal time of exposure to effect sterilization ([8]; dilution 1/2 in normal saline (NS)): 0.25 min
minimal time of exposure to effect sterilization ([8]; dilution 1/2 in peptone-saline (PS)): 1 min
minimal time of exposure to effect sterilization ([8]; dilution 1/2 in peritoneal dialyzate (PD)): 0.083 min
minimal time of exposure to effect sterilization ([8]; dilution 1/3 in normal saline (NS)): 0.5 min
minimal time of exposure to effect sterilization ([8]; dilution 1/3 in peptone-saline (PS)): 3 min
minimal time of exposure to effect sterilization ([8]; dilution 1/3 in peritoneal dialyzate (PD)): 1 min
minimal time of exposure to effect sterilization ([8]; dilution 1/5 in normal saline (NS)): 5 min
minimal time of exposure to effect sterilization ([8]; dilution 1/5 in peptone-saline (PS)): 60 min
minimal time of exposure to effect sterilization ([8]; dilution 1/5 in peritoneal dialyzate (PD)): 5 min
minimal time of exposure to effect sterilization ([8]; dilution 1/7 in normal saline (NS)): 15 min
minimal time of exposure to effect sterilization ([8]; dilution 1/7 in peptone-saline (PS)): 240 min
minimal time of exposure to effect sterilization ([8]; dilution 1/7 in peritoneal dialyzate (PD)): 7 min
minimal time of exposure to effect sterilization ([8]; dilution 1/10 in normal saline (NS)): 60 min
minimal time of exposure to effect sterilization ([8]; dilution 1/10 in peptone-saline (PS)): 1440 min
minimal time of exposure to effect sterilization ([8]; dilution 1/10 in peritoneal dialyzate (PD)): 10 min
effect of diluting with peptone solutions on sterilizing activity ([8]; diluted with peptone solutions): inhibitory effect on the sterilizing activity
effect of peritoneal dialysis solution on antimicrobial activity ([8]; diluted with peritoneal dialysis solution): markedly enhances antimicrobial activity
inhibition of free radical formation ([9]; 15 ppm chlorine dioxide): 100%
inhibition of free radical formation ([9]; about 7.5 ppm chlorine dioxide): 74%
inhibition of free radical formation ([9]; in words): neutralize the superoxide and related radicals
safety of infusion / immune response [10]: safely infusable into cows' udders without stimulation of any immune response
